Assays:
SCD1 = SCD1 mRNA expression, qRT-PCR; format: cell-based, human; conditions: after 24 h, HT29
Method: Total RNA from control- and 4-treated HT29 cells was isolated using the RNeasy Mini Kit (Qiagen, Hilden, Germany) according to the manufacturer's protocol. RNA was quantified using the NanoDrop spectrophotometer (Thermo Fisher Scientific, Waltham, MA, USA). RNA (1 μg) was transcribed into cDNA using the PrimeScript RT Master Mix (Perfect Real Time) (Takara Bio, Kusatsu, Japan) according to the manufacturer's instructions. Real-time PCR was performed using the Sybr Premix Ex Taq Takara kit (Takara Bio, Kusatsu, Japan) and the LightCycler 2.0 instrument (Roche Diagnostic, Basel, Switzerland). The following primers (Sigma-Aldrich, Milan, Italy) were used: [NT] (forward) and [NT] (reverse) for FASN detection, [NT] (forward) and [NT] (reverse) for SCD1 detection, and [NT] (forward) and [NT] (reverse) for the detection of β-actin. The first gene analyzed was the housekeeping gene β-actin, and its CT values were used as standards in the ΔΔCT method of result analysis. cDNA samples from HT29-treated cells were compared with untreated control cells.

HT29 cells = test: Mitochondrial potential by JC-1 staining; format: cell-based, human; conditions: 24 h treatment
Method: JC-1 is a dye that is permeable to alive cells and is accumulated in the anionic mitochondrial matrix indicating the level of mitochondrial potential. When present at low concentrations, the JC-1 monomer fluorescence is green (around 535 nm), while at increased concentration, it can aggregate and fluoresces in the red (600 nm). The ratio between the red fluorescence and the green one is directly proportional to the mitochondrial activity. […] Negative controls were treated in the same way, but JC-1 was not added to these samples. The plates were read on the Ensight plate reader, exciting the red fluorescence at 506 nm and the green one at 488 nm, while the emission was, respectively, read at 595 nm and 535 nm, and the ratio between the red and green fluorescence was calculated.

Q: `CCCCCCCCC[C@H](CCCCCCCC(=O)O)O[Si](C)(C)C(C)(C)C` [Compound 4, (R)-9-((tert-butyldimethylsilyl)oxy)octadecanoic acid] was tested. Which SCD1 gene expression (SCD1) did it give?
A: decreases

Q: And the “change in mitochondrial potential” value (HT29 cells)?
A: does not lead to a change

Source: article PMC11820896, “New Compounds with Enhanced Biological Activity Through the Strategic Introduction of Silylated Groups into Hydroxystearic Acids” (Molecules, 2025)
